The target in this experiment is recombinant DYRK1A kinase (Homo sapiens (Human), UniProt Q13627). Briefly: DYRK1A kinase assay (Ser/Thr 18 peptide Z-lyte FRET assay). It counts as biochemical. The note with it: DYRK1A 0.25 μg/mL, ATP 15 μM, Ser/Thr peptide 18 4 μM; one hour at room temperature; 11-point dose-response, duplicate. The essentials: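 Z-lyte FRET assay on Ser/Thr 18 peptide, kinase activity read as coumarin/fluorescein emission ratio; compounds incubated 1 h at room temperature, then development reagent 1 h, in duplicate. Phosphorylated and unphosphorylated peptide served as controls; IC50 by non-linear regression of dose-response curves.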
As for `CNc1nc(N[C@@H]2CCN(C3CC(F)(F)C3)C[C@@H]2F)nn2ccc(-c3ccc4nc(C)n(CC(F)F)c4n3)c12` [Compound 380, N^2-((3S,4R)-1-(3,3-Difluorocyclobutyl)-3-fluoropiperidin-4-yl)-5-(3-(2,2-difluoroethyl)-2-methyl-3H-imidazo[4,5-b]pyridin-5-yl)-N^4-methylpyrrolo[2,1-f][1,2,4]triazine-2,4-diamine], the concentration for half-maximal inhibition (IC50) – broadly, the concentration at which inhibition is half-maximal – worked out at 3.2 nM.

`CNc1nc(N[C@H]2CCN(C3CC(F)(F)C3)C[C@H]2F)nn2ccc(-c3ccc4nc(C)n(CC(F)F)c4n3)c12` [Compound 381, N^2-((3R,4S)-1-(3,3-Difluorocyclobutyl)-3-fluoropiperidin-4-yl)-5-(3-(2,2-difluoroethyl)-2-methyl-3H-imidazo[4,5-b]pyridin-5-yl)-N^4-methylpyrrolo[2,1-f][1,2,4]triazine-2,4-diamine]: the concentration for half-maximal inhibition (IC50) was 2.2 nM.

Turning to `[2H]C([2H])([2H])Nc1nc(N[C@@H]2CCN(C)CC2(F)F)nn2ccc(-c3ccc4nc(C)n(CC(F)F)c4n3)c12` [Compound 382, (R)—N^2-(3,3-Difluoro-1-methylpiperidin-4-yl)-5-(3-(2,2-difluoroethyl)-2-methyl-3H-imidazo[4,5-b]pyridin-5-yl)-N^4-(methyl-d3)pyrrolo[2,1-f][1,2,4]triazine-2,4-diamine], the IC50 was determined as 3.3 nM.

In the case of `CCN1CC[C@@H](Nc2nc(NC)c3c(-c4ccc5nc(C)n(CC(F)F)c5n4)ccn3n2)C(F)(F)C1` [Compound 383, (R)-5-(3-(2,2-Difluoroethyl)-2-methyl-3H-imidazo[4,5-b]pyridin-5-yl)-N^2-(1-ethyl-3,3-difluoropiperidin-4-yl)-N^4-methylpyrrolo[2,1-f][1,2,4]triazine-2,4-diamine], the IC50 turned out to be 3.5 nM.

Take `CCN1CC[C@H](Nc2nc(NC)c3c(-c4ccc5nc(C)n(CC(F)F)c5n4)ccn3n2)C(F)(F)C1` [Compound 384, (S)-5-(3-(2,2-Difluoroethyl)-2-methyl-3H-imidazo[4,5-b]pyridin-5-yl)-N^2-(1-ethyl-3,3-difluoropiperidin-4-yl)-N^4-methylpyrrolo[2,1-f][1,2,4]triazine-2,4-diamine]: the half-maximal inhibitory concentration (IC50) was determined as 2 nM.

On to `[2H]C([2H])([2H])Nc1nc(N[C@@H]2CCN(CC)CC2(F)F)nn2ccc(-c3ccc4nc(C)n(CC(F)F)c4n3)c12` [Compound 385, (R)-5-(3-(2,2-Difluoroethyl)-2-methyl-3H-imidazo[4,5-b]pyridin-5-yl)-N^2-(1-ethyl-3,3-difluoropiperidin-4-yl)-N^4-(methyl-d3)pyrrolo[2,1-f][1,2,4]triazine-2,4-diamine], for which the IC50 amounted to 4.6 nM.

Regarding `CNc1nc(N[C@@H]2CCN(C3CC3)CC2(F)F)nn2ccc(-c3ccc4nc(C)n(CC(F)F)c4n3)c12` [Compound 386, (R)—N^2-(1-Cyclopropyl-3,3-difluoropiperidin-4-yl)-5-(3-(2,2-difluoroethyl)-2-methyl-3H-imidazo[4,5-b]pyridin-5-yl)-N^4-methylpyrrolo[2,1-f][1,2,4]triazine-2,4-diamine], the IC50 is 4.6 nM.

As for `CNc1nc(N[C@H]2CCN(C3CC3)CC2(F)F)nn2ccc(-c3ccc4nc(C)n(CC(F)F)c4n3)c12` [Compound 387, (S)—N^2-(1-Cyclopropyl-3,3-difluoropiperidin-4-yl)-5-(3-(2,2-difluoroethyl)-2-methyl-3H-imidazo[4,5-b]pyridin-5-yl)-N^4-methylpyrrolo[2,1-f][1,2,4]triazine-2,4-diamine], the IC50 worked out at 12.8 nM.

As for `[2H]C([2H])([2H])Nc1nc(N[C@@H]2CCN(C3COC3)CC2(F)F)nn2ccc(-c3ccc4nc(C)n(CC(F)F)c4n3)c12` [Compound 388, (R)—N^2-(3,3-Difluoro-1-(oxetan-3-yl)piperidin-4-yl)-5-(3-(2,2-difluoroethyl)-2-methyl-3H-imidazo[4,5-b]pyridin-5-yl)-N^4-(methyl-d3)pyrrolo[2,1-f][1,2,4]triazine-2,4-diamine], the 50% inhibitory concentration (IC50) was determined as 4.7 nM.

In the case of `CNc1nc(NC2CCC3(CC2)OCCO3)nn2ccc(-c3ccc4nc(C)n(CC(F)F)c4n3)c12` [Compound 389, 5-(3-(2,2-Difluoroethyl)-2-methyl-3H-imidazo[4,5-b]pyridin-5-yl)-N^4-methyl-N^2-(1,4-dioxaspiro[4.5]decan-8-yl)pyrrolo[2,1-f][1,2,4]triazine-2,4-diamine], the IC50 came to 1.8 nM.

Consider `CNc1nc(N[C@H]2CC[C@@](C)(O)CC2)nn2ccc(-c3ccc4nc(C)n(CC(F)(F)F)c4n3)c12` [Compound 441, (1s,4s)-1-Methyl-4-((5-(2-methyl-3-(2,2,2-trifluoroethyl)-3H-imidazo[4,5-b]pyridin-5-yl)-4-(methylamino)pyrrolo[2,1-f][1,2,4]triazin-2-yl)amino)cyclohexan-1-ol], for which the half-maximal inhibitory concentration (IC50) was found to be 0.7 nM.

With `CNc1nc(N[C@H]2CC[C@](C)(O)CC2)nn2ccc(-c3ccc4nnn(CC(F)F)c4n3)c12` [Compound 465, (1r,4r)-4-((5-(3-(2,2-Difluoroethyl)-3H-[1,2,3]triazolo[4,5-b]pyridin-5-yl)-4-(methylamino)pyrrolo[2,1-f][1,2,4]triazin-2-yl)amino)-1-methylcyclohexan-1-ol], the IC50 was determined as 1.4 nM.

With `CNc1nc(N[C@H]2CCN(C3COC3)C[C@H]2F)nn2ccc(-c3ccc4nnn(CC(F)F)c4n3)c12` [Compound 474, 5-(3-(2,2-Difluoroethyl)-3H-[1,2,3]triazolo[4,5-b]pyridin-5-yl)-N^2-((3R,4S)-3-fluoro-1-(oxetan-3-yl)piperidin-4-yl)-N^4-methylpyrrolo[2,1-f][1,2,4]triazine-2,4-diamine], the IC50 was determined as 1.3 nM.

With `CNc1nc(N[C@@H]2CCN(C)CC2(F)F)nn2ccc(-c3ccc4nnn(CC(F)F)c4n3)c12` [Compound 479, (R)—N^2-(3,3-Difluoro-1-methylpiperidin-4-yl)-5-(3-(2,2-difluoroethyl)-3H-[1,2,3]triazolo[4,5-b]pyridin-5-yl)-N4-methylpyrrolo[2,1-f][1,2,4]triazine-2,4-diamine], the IC50 is 0.6 nM.

In the case of `CNc1nc(N[C@@H]2CCN(C3COC3)CC2(F)F)nn2ccc(-c3ccc4nnn(CC(F)F)c4n3)c12` [Compound 480, (R)—N^2-(3,3-Difluoro-1-(oxetan-3-yl)piperidin-4-yl)-5-(3-(2,2-difluoroethyl)-3H-[1,2,3]triazolo[4,5-b]pyridin-5-yl)-N^4-methylpyrrolo[2,1-f][1,2,4]triazine-2,4-diamine], the 50% inhibitory concentration (IC50) is 1.3 nM.

In the case of `CCNc1nc(N[C@@H]2CCNCC2(F)F)nn2ccc(-c3ccc4nc(C)n(CC(F)F)c4n3)c12` [Compound 482, (R)-5-(3-(2,2-Difluoroethyl)-2-methyl-3H-imidazo[4,5-b]pyridin-5-yl)-N^2-(3,3-difluoropiperidin-4-yl)-N^4-ethylpyrrolo[2,1-f][1,2,4]triazine-2,4-diamine], the IC50 was 3.1 nM.

Take `CCNc1nc(N[C@@H]2CCN(C)CC2(F)F)nn2ccc(-c3ccc4nc(C)n(CC(F)F)c4n3)c12` [Compound 483, (R)—N^2-(3,3-difluoro-1-methylpiperidin-4-yl)-5-(3-(2,2-difluoroethyl)-2-methyl-3H-imidazo[4,5-b]pyridin-5-yl)-N^4-ethylpyrrolo[2,1-f][1,2,4]triazine-2,4-diamine]: the IC50 was 3.6 nM.

As to `Cc1nc2ccc(-c3ccn4nc(N[C@@H]5CCNCC5(F)F)nc(NC(C)C)c34)nc2n1CC(F)F` [Compound 484, (R)-5-(3-(2,2-Difluoroethyl)-2-methyl-3H-imidazo[4,5-b]pyridin-5-yl)-N^2-(3,3-difluoropiperidin-4-yl)-N^4-isopropylpyrrolo[2,1-f][1,2,4]triazine-2,4-diamine], the IC50 amounted to 6.4 nM.

On to `Cc1nc2ccc(-c3ccn4nc(N[C@@H]5CCN(C)CC5(F)F)nc(NC(C)C)c34)nc2n1CC(F)F` [Compound 485, (R)—N^2-(3,3-Difluoro-1-methylpiperidin-4-yl)-5-(3-(2,2-difluoroethyl)-2-methyl-3H-imidazo[4,5-b]pyridin-5-yl)-N^4-isopropylpyrrolo[2,1-f][1,2,4]triazine-2,4-diamine], for which the IC50 was found to be 7.3 nM.

Turning to `Cc1nc2ccc(-c3ccn4nc(N[C@@H]5CCNCC5(F)F)nc(NC5COC5)c34)nc2n1CC(F)F` [Compound 486, (R)-5-(3-(2,2-Difluoroethyl)-2-methyl-3H-imidazo[4,5-b]pyridin-5-yl)-N^2-(3,3-difluoropiperidin-4-yl)-N^4-(oxetan-3-yl)pyrrolo[2,1-f][1,2,4]triazine-2,4-diamine], the IC50 was found to be 7830 nM.

Consider `Cc1nc2ccc(-c3ccn4nc(N[C@@H]5CCN(C)CC5(F)F)nc(NC5COC5)c34)nc2n1CC(F)F` [Compound 487, (R)—N2-(3,3-Difluoro-1-methylpiperidin-4-yl)-5-(3-(2,2-difluoroethyl)-2-methyl-3H-imidazo[4,5-b]pyridin-5-yl)-N4-(oxetan-3-yl)pyrrolo[2,1-f][1,2,4]triazine-2,4-diamine], for which the IC50 stood at 3.8 nM.

`Cc1nc2ccc(-c3ccn4nc(N[C@H]5CC[C@](C)(O)CC5)nc(N)c34)nc2n1CC(F)F` [Compound 692, (1r,4r)-4-((4-Amino-5-(3-(2,2-difluoroethyl)-2-methyl-3H-imidazo[4,5-b]pyridin-5-yl)pyrrolo[2,1-f][1,2,4]triazin-2-yl)amino)-1-methylcyclohexan-1-ol]: the IC50 was determined as 0.9 nM.

On to `CC(=O)N1C[C@H](F)[C@H](Nc2nc(N)c3c(-c4ccc5nc(C)n(CC(F)F)c5n4)ccn3n2)C1` [Compound 700, 1-((3R,4S)-3-((4-Amino-5-(3-(2,2-difluoroethyl)-2-methyl-3H-imidazo[4,5-b]pyridin-5-yl)pyrrolo[2,1-f][1,2,4]triazin-2-yl)amino)-4-fluoropyrrolidin-1-yl)ethan-1-one], for which the IC50 is 1 nM.

`Cc1nc2ccc(-c3ccn4nc(N[C@@H]5CN(C6COC6)C[C@@H]5F)nc(N)c34)nc2n1CC(F)F` [Compound 701, 5-(3-(2,2-Difluoroethyl)-2-methyl-3H-imidazo[4,5-b]pyridin-5-yl)-N^2-((3R,4S)-4-fluoro-1-(oxetan-3-yl)pyrrolidin-3-yl)pyrrolo[2,1-f][1,2,4]triazine-2,4-diamine]: the IC50 amounted to 1 nM.

Values taken from patent US20240199649A1 (Biosplice Therapeutics, Inc., priority 2022, published 2024).
